From patent publication US9376454B2, “Beta-lactamase inhibitors” (priority 2013, dated 2016)

Legend:
Assay type in all cases: biochemical
[1] = biological target: T1, VIM-2 metallo β-lactamase (Pseudomonas aeruginosa, UniProt Q9K2N0); assay: β-Lactamase inhibition enzyme assay, VIM-2; conditions: Nitrocefin 100 μM as substrate, 486 nm; 15 min at 37° C. with enzyme, PBS pH 7.4; read-out: Class B VIM-2 IC50
T1 construct: made in house; host or cells: E. coli BL21(DE3)
Protocol: (§1) For SHV-5, Kpc-2, p99AmpC and OXA-1 β-lactamases, E. coli BL21(DE3) bacterial cells carrying expression plasmids (expressed as native untagged proteins) for the individual β-lactamases were grown in 1 L of Superbroth (Teknova Inc. Hollister, Calif.) supplemented with 100 μg/ml kanamycin selection and 1×5052 (0.5% glycerol, 0.05% glucose and 0.2% α-lactose) at 35° C. for 18-20 hours. Cells were harvested by centrifugation (4,000×g, 4° C., 20 min), resuspended in 50 ml of 10 mM HEPES pH 7.5 ( 1/20 of the initial volume). The cells were lysed by sonication (5 pulses of 45 seconds) at 45 W on ice. The lysates were clarified by centrifugation at 10,000×g for 40 minutes at 4° C. Samples were diluted 5-fold in 50 mM sodium acetate pH 5.0, stored overnight at 4° C., after which they were centrifuged at 10,000×g for 30 minutes to clarify, and filtered through 0.45 μm filters. The samples were loaded onto a 5 ml Capto S sepharose cation exchange column (GE Healthcare) pre-equilibrated with 50 mM sodium acetate pH 5.0. The column was washed with 5 column volumes of 50 mM sodium acetate pH 5.0 to wash out unbound protein and a linear gradient of NaCl (0 to 500 mM) was used to elute the protein (over 16 CV) from the column. Fractions were assayed for β-lactamase activity using Centa (Calbiochem, Gibbstown, N.J.) or Nitrocefin (EMD Millipore chemicals, Darmstadt, Germany) as a reporter β-lactamase substrate for activity in the isolated fractions. Active fractions were pooled, concentrated and further purified by gel filtration chromatography on a Superdex 75 prep grade gel filtration column (GE Healthcare, Piscataway, N.J.) pre-equilibrated in 50 mM Hepes pH 7.5, 150 mM NaCl. Active fractions were pooled concentrated, quantitated by BCA protein determination (Thermo Scientific, Rockford, Ill.), dialyzed into PBS and frozen at −80° C. in 20% glycerol until use.
For Vim-2 metallo β-lactamase, the procedure was identical with the following exceptions, first the protein was not pH adjusted to pH 5 with 50 mM sodium acetate, second, the chromatography step was changed to a 5 ml Q sepharose anion exchange column pre-equilibrated with 50 mM Hepes pH 7.5, and elution of the protein was achieved by a linear gradient of NaCl (0-600 mM). Finally, the VIM-2 purification required a second run (3rd step) on the Q sepharose anion exchange column to achieve acceptable purity (>90%).
(§2) An equal volume of diluted enzyme stock was added, and the plates were incubated at 37° C. for 15 min. Nitrocefin was used as substrate for p99 AmpC, VIM-2 and OXA-1 and dispensed into each well at a final concentration of 100 μM. Absorbance at 486 nm was immediately monitored for 10 min using a Biotek Powerwave XS2 microplate spectrophotometer using the GEN5 softweare package (Biotek Instruments, Winooski Vt.). In an analogous fashion, imipenem was used as substrate for Kpc-2 and Cefotaxime was used for SHV-5, while changes in absorbance upon hydrolysis of the β-lactam ring were monitored at 300 nm and 260 nm respectively in UV-transparent 96-well microtiter assay plates. Maximum rates of hydrolysis were compared to those in control wells (without inhibitors), and percentages of enzyme inhibition were calculated for each concentration of inhibitor. The concentration of inhibitor needed to reduce the initial rate of hydrolysis of substrate by 50% (IC50) was calculated as the residual activity of β-lactamase at 486 nm using GraFit version 7 kinetics software package (Erithacus Software, Surrey, UK).

KPC-2 β-lactamase = biological target: T2, KPC-2 β-lactamase (Klebsiella pneumoniae, UniProt Q9F663); assay: β-Lactamase inhibition enzyme assay, KPC-2; conditions: imipenem as substrate, 300 nm; 15 min at 37° C. with enzyme, PBS pH 7.4; read-out: Class A KPC-2 IC50
T2 construct: made in house; host or cells: E. coli BL21(DE3)
Protocol: as §1, §2

SHV-5 β-lactamase = biological target: T3, SHV-5 β-lactamase (Klebsiella pneumoniae, UniProt P0A3M1); assay: β-Lactamase inhibition enzyme assay, SHV-5
T3 construct: made in house; host or cells: E. coli BL21(DE3)
Protocol: as §1, §2

p99 AmpC β-lactamase = biological target: T4, p99 AmpC β-lactamase (Enterobacter cloacae, UniProt P05364); assay: β-Lactamase inhibition enzyme assay, p99 AmpC
T4 construct: made in house; host or cells: E. coli BL21(DE3)
Protocol: as §1, §2

OXA-1 β-lactamase = biological target: T5, OXA-1 β-lactamase (Escherichia coli, UniProt P13661); assay: β-Lactamase inhibition enzyme assay, OXA-1; conditions: Nitrocefin 100 μM as substrate, 486 nm; 15 min at 37° C. with enzyme, PBS pH 7.4; read-out: Class D OXA-1 IC50
T5 construct: made in house; host or cells: E. coli BL21(DE3)
Protocol: as §1, §2

T3 sequence (P0A3M1 22-286): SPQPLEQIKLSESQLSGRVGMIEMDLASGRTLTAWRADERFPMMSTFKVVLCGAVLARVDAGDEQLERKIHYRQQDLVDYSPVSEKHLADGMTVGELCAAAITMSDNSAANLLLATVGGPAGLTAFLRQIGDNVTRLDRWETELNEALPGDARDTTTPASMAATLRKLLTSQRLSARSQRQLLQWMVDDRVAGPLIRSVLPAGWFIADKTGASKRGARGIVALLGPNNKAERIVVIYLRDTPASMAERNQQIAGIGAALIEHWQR
T2 sequence (Q9F663 25-293, looked up): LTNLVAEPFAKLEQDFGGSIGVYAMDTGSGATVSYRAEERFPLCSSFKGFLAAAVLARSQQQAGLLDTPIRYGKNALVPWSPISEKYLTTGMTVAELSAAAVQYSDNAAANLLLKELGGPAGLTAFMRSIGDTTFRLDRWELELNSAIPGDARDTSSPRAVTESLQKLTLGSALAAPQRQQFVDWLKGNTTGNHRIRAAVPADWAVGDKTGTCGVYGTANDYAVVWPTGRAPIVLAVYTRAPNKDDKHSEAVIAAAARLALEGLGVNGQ
T5 sequence (P13661 26-276): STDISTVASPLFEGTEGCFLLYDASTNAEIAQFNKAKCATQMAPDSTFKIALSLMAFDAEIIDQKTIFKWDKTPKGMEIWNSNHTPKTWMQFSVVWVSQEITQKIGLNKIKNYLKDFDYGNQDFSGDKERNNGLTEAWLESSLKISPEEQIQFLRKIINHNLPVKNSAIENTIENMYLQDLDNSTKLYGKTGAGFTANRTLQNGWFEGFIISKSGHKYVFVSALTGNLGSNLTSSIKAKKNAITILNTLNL
T4 sequence (P05364 21-381): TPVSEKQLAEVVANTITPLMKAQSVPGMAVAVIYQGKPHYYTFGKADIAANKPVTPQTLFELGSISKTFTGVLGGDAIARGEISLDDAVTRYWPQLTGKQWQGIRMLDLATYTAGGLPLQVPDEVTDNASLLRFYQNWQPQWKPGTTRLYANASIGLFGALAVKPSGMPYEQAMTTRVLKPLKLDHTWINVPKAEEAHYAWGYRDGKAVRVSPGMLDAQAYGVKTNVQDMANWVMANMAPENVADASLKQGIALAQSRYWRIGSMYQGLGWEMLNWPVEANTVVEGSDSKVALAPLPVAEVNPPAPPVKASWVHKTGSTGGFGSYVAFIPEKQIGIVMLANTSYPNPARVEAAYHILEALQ

SMILES | IC50 [1] [nM] | IC50 (KPC-2 β-lactamase) [nM] | IC50 (SHV-5 β-lactamase) [nM] | IC50 (p99 AmpC β-lactamase) [nM] | IC50 (OXA-1 β-lactamase) [nM]
O=C(Cc1ccc(O)c(O)c1)N[C@H]1Cc2cccc(C(=O)O)c2OB1O [Example 38, (R)-3-(2-(3,4-dihydroxyphenyl)acetamido)-2-hydroxy-3,4-dihydro-2H-benzo[e][1,2]oxaborinine-8-carboxylic acid] | 100 to 1000 | < 100 | < 100 | < 100 | < 100
NCCOc1ccc(CC(=O)N[C@H]2Cc3cccc(C(=O)O)c3OB2O)cc1OCCN [Example 58, (R)-3-(2-(3,4-bis(2-aminoethoxy)phenyl)acetamido)-2-hydroxy-3,4-dihydro-2H-benzo[e][1,2]oxaborinine-8-carboxylic acid] | 100 to 1000 | < 100 | < 100 | < 100 | < 100
Cc1ccc(C(=O)N[C@H]2Cc3cccc(C(=O)O)c3OB2O)cc1N [Example 23, (R)-3-(3-amino-4-methylbenzamido)-2-hydroxy-3,4-dihydro-2H-benzo[e][1,2]oxaborinine-8-carboxylic acid] | 100 to 1000 | < 100 | < 100 | < 100 | < 100
CN1CCc2cc(C(=O)N[C@H]3Cc4cccc(C(=O)O)c4OB3O)ccc2C1 [Example 7, (R)-2-hydroxy-3-(2-methyl-1,2,3,4-tetrahydroisoquinoline-6-carboxamido)-3,4-dihydro-2H-benzo[e][1,2]oxaborinine-8-carboxylic acid] | 100 to 1000 | < 100 | < 100 | < 100 | 100 to 1000
O=C1Cc2cc(C(=O)N[C@H]3Cc4cccc(C(=O)O)c4OB3O)ccc2N1 [Example 33, (R)-2-Hydroxy-3-[(2-oxo-2,3-dihydro-1H-indole-5-carbonyl)-amino]-3,4-dihydro-2H-benzo[e][1,2]oxaborinine-8-carboxylic acid] | 100 to 1000 | < 100 | < 100 | < 100 | < 100
N=C(N)NCc1ccc(C(=O)N[C@H]2Cc3cccc(C(=O)O)c3OB2O)cc1CNC(=N)N [Example 25, (R)-3-(3,4-bis(guanidinomethyl)benzamido)-2-hydroxy-3,4-dihydro-2H-benzo[e][1,2]oxaborinine-8-carboxylic acid] | < 100 | < 100 | 100 to 1000 | < 100 | 100 to 1000
NCCOc1ccc(CC(=O)N[C@H]2Cc3cccc(C(=O)O)c3OB2O)cc1O [Example 59, (R)-3-(2-(4-(2-aminoethoxy)-3-hydroxyphenyl)acetamido)-2-hydroxy-3,4-dihydro-2H-benzo[e][1,2]oxaborinine-8-carboxylic acid] | 100 to 1000 | < 100 | < 100 | < 100 | < 100
O=C(N[C@H]1Cc2cccc(C(=O)O)c2OB1O)c1cnc2[nH]ccc2c1 [Example 35, (R)-2-Hydroxy-3-[(1H-pyrrolo[2,3-b]pyridine-5-carbonyl)-amino]-3,4-dihydro-2H-benzo[e][1,2]oxaborinine-8-carboxylic acid] | 100 to 1000 | < 100 | < 100 | < 100 | < 100
N=C(N)N1Cc2ccc(C(=O)N[C@H]3Cc4cccc(C(=O)O)c4OB3O)cc2C1 [Example 16, (R)-3-(2-carbamimidoylisoindoline-5-carboxamido)-2-hydroxy-3,4-dihydro-2H-benzo[e][1,2]oxaborinine-8-carboxylic acid] | < 100 | < 100 | < 100 | < 100 | < 100
NCc1ccc(CC(=O)N[C@H]2Cc3cccc(C(=O)O)c3OB2O)cc1CN [Example 20, (R)-3-(2-(3,4-bis(aminomethyl)phenyl)acetamido)-2-hydroxy-3,4-dihydro-2H-benzo[e][1,2]oxaborinine-8-carboxylic acid] | < 100 | < 100 | < 100 | < 100 | < 100
NCCNC(=O)c1ccccc1C(=O)N[C@H]1Cc2cccc(C(=O)O)c2OB1O [Example 54, (R)-3-(2-(2-aminoethylcarbamoyl)benzamido)-2-hydroxy-3,4-dihydro-2H-benzo[e][1,2]oxaborinine-8-carboxylic acid] | 1000 to 10000 | 100 to 1000 | 100 to 1000 | < 100 | 1000 to 10000
O=C(Cc1cnc2c(c1)CCCN2)N[C@H]1Cc2cccc(C(=O)O)c2OB1O [Example 13, (R)-2-hydroxy-3-(2-(5,6,7,8-tetrahydro-1,8-naphthyridin-3-yl)acetamido)-3,4-dihydro-2H-benzo[e][1,2]oxaborinine-8-carboxylic acid] | 1000 to 10000 | 100 to 1000 | < 100 | < 100 | < 100
CC(C)NCc1ccc(C(=O)N[C@H]2Cc3cccc(C(=O)O)c3OB2O)cc1CNC(C)C [Example 56, (R)-3-(3,4-bis((isopropylamino)methyl)benzamido)-2-hydroxy-3,4-dihydro-2H-benzo[e][1,2]oxaborinine-8-carboxylic acid] | 100 to 1000 | < 100 | < 100 | < 100 | < 100
NCCNc1ccc(CC(=O)N[C@H]2Cc3cccc(C(=O)O)c3OB2O)cn1 [Example 60, (R)-3-(2-(6-(2-aminoethylamino)pyridin-3-yl)acetamido)-2-hydroxy-3,4-dihydro-2H-benzo[e][1,2]oxaborinine-8-carboxylic acid] | 100 to 1000 | < 100 | < 100 | < 100 | < 100
O=C(N[C@H]1Cc2cccc(C(=O)O)c2OB1O)c1cnc2c(c1)CNC2 [Example 50, (3R)-3-(6,7-dihydro-5H-pyrrolo[3,4-b]pyridine-3-carbonylamino)-2-hydroxy-3,4-dihydro-1,2-benzoxaborinine-8-carboxylic acid] | 100 to 1000 | < 100 | < 100 | < 100 | < 100
CN1Cc2ccc(C(=O)N[C@H]3Cc4cccc(C(=O)O)c4OB3O)cc2C1 [Example 10, (R)-2-hydroxy-3-(2-methylisoindoline-5-carboxamido)-3,4-dihydro-2H-benzo[e][1,2]oxaborinine-8-carboxylic acid] | < 100 | < 100 | < 100 | < 100 | < 100
Cc1ccc(C(=O)N[C@H]2Cc3cccc(C(=O)O)c3OB2O)cc1NC(=O)[C@@H](N)CN [Example 22, (R)-3-(3-((S)-2,3-diaminopropanamido)-4-methylbenzamido)-2-hydroxy-3,4-dihydro-2H-benzo[e][1,2]oxaborinine-8-carboxylic acid] | 100 to 1000 | 100 to 1000 | 1000 to 10000 | < 100 | < 100
NCCNc1ccc(CC(=O)N[C@H]2Cc3cccc(C(=O)O)c3OB2O)cc1 [Example 57, (R)-3-(2-(4-(2-aminoethylamino)phenyl)acetamido)-2-hydroxy-3,4-dihydro-2H-benzo[e][1,2]oxaborinine-8-carboxylic acid] | 1000 to 10000 | < 100 | < 100 | < 100 | < 100
